Where a name gives a salt, the structure may show the parent alone.
How the values were obtained:
5-HT7 receptor = 5-HT7 receptor (Homo sapiens, UniProt P34969); assay: in vitro binding to 5-HT7 receptor (screening protocol); details: read-out: Ki ± SD 5-HT7
Description: (§1) The ligands obtained in the synthesis (10a–r) were tested in vitro for binding to D2, 5-HT1A, 5-HT2A, 5-HT6, and 5-HT7 receptors on the basis of the screening protocol described previously (Table 6).

5-HT2A receptor = 5-HT2A receptor (Homo sapiens, UniProt P28223); assay: in vitro binding to 5-HT2A receptor (screening protocol); details: read-out: Ki ± SD 5-HT2A
Sequence of 5-HT2A receptor (P28223 whole entry): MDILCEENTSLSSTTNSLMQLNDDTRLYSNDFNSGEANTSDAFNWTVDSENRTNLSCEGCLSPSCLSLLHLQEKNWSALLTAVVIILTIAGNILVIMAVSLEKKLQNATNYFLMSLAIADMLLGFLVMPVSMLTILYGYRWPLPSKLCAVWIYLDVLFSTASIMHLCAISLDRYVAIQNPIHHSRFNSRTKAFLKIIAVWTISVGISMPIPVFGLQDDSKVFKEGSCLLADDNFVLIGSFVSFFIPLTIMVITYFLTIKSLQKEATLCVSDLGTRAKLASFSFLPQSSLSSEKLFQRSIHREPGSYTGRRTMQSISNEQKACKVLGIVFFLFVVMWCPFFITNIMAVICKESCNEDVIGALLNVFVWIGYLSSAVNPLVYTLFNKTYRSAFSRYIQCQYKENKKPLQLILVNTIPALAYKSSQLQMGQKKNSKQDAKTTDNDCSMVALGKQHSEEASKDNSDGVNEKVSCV
Description: as §1

5-HT6 receptor = 5-HT6 receptor (Homo sapiens, UniProt P50406); assay: in vitro binding to 5-HT6 receptor (screening protocol); details: read-out: Ki ± SD 5-HT6
Sequence of 5-HT6 receptor (P50406 whole entry): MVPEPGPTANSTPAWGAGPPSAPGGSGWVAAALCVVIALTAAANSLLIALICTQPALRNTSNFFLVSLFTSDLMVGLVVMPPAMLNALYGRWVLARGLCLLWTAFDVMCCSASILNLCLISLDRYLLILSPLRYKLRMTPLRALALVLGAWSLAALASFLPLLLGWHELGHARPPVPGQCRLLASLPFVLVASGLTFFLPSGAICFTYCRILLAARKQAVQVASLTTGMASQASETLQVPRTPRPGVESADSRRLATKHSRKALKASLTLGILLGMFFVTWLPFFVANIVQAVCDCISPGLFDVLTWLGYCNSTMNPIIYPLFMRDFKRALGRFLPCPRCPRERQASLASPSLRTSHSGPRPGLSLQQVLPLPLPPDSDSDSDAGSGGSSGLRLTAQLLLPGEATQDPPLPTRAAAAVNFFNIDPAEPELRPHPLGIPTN
Description: as §1

D2 receptor = D2 receptor (Homo sapiens, UniProt P14416); assay: in vitro binding to D2 receptor (screening protocol); details: read-out: Ki ± SD D2
Sequence of D2 receptor (P14416 whole entry): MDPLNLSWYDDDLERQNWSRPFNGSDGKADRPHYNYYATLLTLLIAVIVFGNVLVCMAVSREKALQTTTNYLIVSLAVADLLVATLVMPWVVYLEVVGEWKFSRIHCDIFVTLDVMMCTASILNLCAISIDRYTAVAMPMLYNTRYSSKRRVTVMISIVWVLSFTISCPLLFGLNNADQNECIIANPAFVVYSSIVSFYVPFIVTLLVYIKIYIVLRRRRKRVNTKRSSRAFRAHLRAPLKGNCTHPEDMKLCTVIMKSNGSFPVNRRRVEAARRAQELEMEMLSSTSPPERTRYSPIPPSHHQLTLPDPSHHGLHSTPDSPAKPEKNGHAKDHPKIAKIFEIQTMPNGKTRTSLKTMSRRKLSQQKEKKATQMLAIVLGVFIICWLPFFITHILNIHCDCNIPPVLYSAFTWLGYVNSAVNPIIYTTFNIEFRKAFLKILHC
Description: as §1

5-HT1A receptor = target: T1, 5-HT1A receptor (Homo sapiens, UniProt P08908); assay: in vitro binding to 5-HT1A receptor (screening protocol); details: read-out: Ki ± SD 5-HT1A
T1 sequence (P08908 1-422): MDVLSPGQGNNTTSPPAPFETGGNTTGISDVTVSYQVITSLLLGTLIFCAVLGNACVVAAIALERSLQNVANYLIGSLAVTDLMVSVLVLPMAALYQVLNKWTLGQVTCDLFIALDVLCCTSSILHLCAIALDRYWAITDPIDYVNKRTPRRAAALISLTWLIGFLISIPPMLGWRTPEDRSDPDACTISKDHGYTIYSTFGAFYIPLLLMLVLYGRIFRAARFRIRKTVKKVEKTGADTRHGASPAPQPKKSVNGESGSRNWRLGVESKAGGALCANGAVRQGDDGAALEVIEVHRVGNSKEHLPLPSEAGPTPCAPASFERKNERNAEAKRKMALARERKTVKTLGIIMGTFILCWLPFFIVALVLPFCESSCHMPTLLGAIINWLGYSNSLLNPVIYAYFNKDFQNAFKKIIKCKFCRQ
Description: as §1

Sequence of 5-HT7 receptor (P34969 whole entry): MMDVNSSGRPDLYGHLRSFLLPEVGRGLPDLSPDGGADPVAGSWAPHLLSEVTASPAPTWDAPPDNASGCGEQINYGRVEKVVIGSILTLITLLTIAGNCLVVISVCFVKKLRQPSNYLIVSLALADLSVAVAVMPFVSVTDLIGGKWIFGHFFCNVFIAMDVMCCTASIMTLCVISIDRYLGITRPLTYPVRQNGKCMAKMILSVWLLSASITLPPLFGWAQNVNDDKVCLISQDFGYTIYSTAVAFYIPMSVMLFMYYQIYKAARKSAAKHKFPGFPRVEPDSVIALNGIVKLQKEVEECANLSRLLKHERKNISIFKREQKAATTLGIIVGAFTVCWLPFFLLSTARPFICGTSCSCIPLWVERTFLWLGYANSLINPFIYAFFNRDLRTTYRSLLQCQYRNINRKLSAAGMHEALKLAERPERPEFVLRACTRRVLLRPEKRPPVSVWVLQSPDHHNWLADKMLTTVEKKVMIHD

SMILES | Ki (5-HT7 receptor) | Ki (5-HT2A receptor) | Ki (5-HT6 receptor) | Ki (D2 receptor) | Ki (5-HT1A receptor)
O=c1n(CCCN2CCN(c3ccccc3F)CC2)nc2ccccn12 [10b, 2-[3-[4-(2-fluorophenyl)piperazin-1-yl]propyl]-[1,2,4]triazolo[4,3-a]pyridin-3-one hydrochloride] | 7420 ± 625 nM | 969 ± 114 nM | 36400 nM | 1650 ± 203 nM | 1550 ± 314 nM
CCOc1ccccc1N1CCN(CCCn2nc3ccccn3c2=O)CC1 [10d, 2-[3-[4-(2-ethoxyphenyl)piperazin-1-yl]propyl]-[1,2,4]triazolo[4,3-a]pyridin-3-one hydrochloride] | 539 ± 68 nM | 6710 ± 952 nM | 9460 ± 1140 nM | 152 ± 17 nM | 593 ± 81 nM
O=c1n(CCCCCCN2CCN(c3ccccc3Cl)CC2)nc2ccccn12 [10f, 2-[6-[4-(2-chlorophenyl)piperazin-1-yl]hexyl]-[1,2,4]triazolo[4,3-a]pyridin-3-one hydrochloride] | 2600 ± 359 nM | 2600 ± 318 nM | 3570 ± 563 nM | 522 ± 71 nM | 49 ± 4 nM
O=c1n(CCCCCCN2CCN(c3ccccc3F)CC2)nc2ccccn12 [10i, 2-[6-[4-(2-fluorophenyl)piperazin-1-yl]hexyl]-[1,2,4]triazolo[4,3-a]pyridin-3-one hydrochloride] | 993 ± 214 nM | 417 ± 52 nM | 4740 ± 687 nM | 195 ± 11 nM | 7 ± 2 nM
COc1cccc(N2CCN(CCCCCCn3nc4ccccn4c3=O)CC2)c1 [10k, 2-[6-[4-(3-methoxyphenyl)piperazin-1-yl]hexyl]-[1,2,4]triazolo[4,3-a]pyridin-3-one hydrochloride] | 1020 ± 184 nM | 343 ± 21 nM | 3500 ± 537 nM | 21 ± 3 nM | 9 ± 2 nM
COc1ccc(N2CCN(CCCCCCn3nc4ccccn4c3=O)CC2)cc1 [10l, 2-[6-[4-(4-methoxyphenyl)piperazin-1-yl]hexyl]-[1,2,4]triazolo[4,3-a]pyridin-3-one hydrochloride] | 8300 ± 1350 nM | 3900 ± 432 nM | 5620 ± 743 nM | 350 ± 54 nM | 826 ± 91 nM
O=c1n(CCCCCCN2CCN(c3ccccn3)CC2)nc2ccccn12 [10n, 2-[6-[4-(2-pyridyl)piperazin-1-yl]hexyl]-[1,2,4]triazolo[4,3-a]pyridin-3-one hydrochloride] | 1050 ± 91 nM | 1720 ± 193 nM | 4640 ± 341 nM | 10 ± 2 nM | 18 ± 3 nM
O=c1n(CCCCCCN2CCN(c3ncccn3)CC2)nc2ccccn12 [10o, 2-[6-(4-pyrimidin-2-ylpiperazin-1-yl)hexyl]-[1,2,4]triazolo[4,3-a]pyridin-3-one hydrochloride] | 5570 ± 438 nM | 10600 nM | 7220 ± 827 nM | 202 ± 31 nM | 104 ± 12 nM

The next molecules have a lower Ki (5-HT7 receptor) than those just listed; values first:

Ki (5-HT7 receptor) | Ki (5-HT2A receptor) | Ki (5-HT6 receptor) | Ki (D2 receptor) | Ki (5-HT1A receptor) | SMILES
157 ± 13 nM | 181 ± 22 nM | 1430 ± 294 nM | 116 ± 19 nM |  | O=c1n(CCCN2CCN(c3cccc(Cl)c3Cl)CC2)nc2ccccn12 [10a, 2-[3-[4-(2,3-dichlorophenyl)piperazin-1-yl]propyl]-[1,2,4]triazolo[4,3-a]pyridin-3-one hydrochloride]
174 ± 34 nM | 178 ± 25 nM | 3250 ± 401 nM | 122 ± 8 nM | 459 ± 36 nM | O=c1n(CCCN2CCN(c3ncccn3)CC2)nc2ccccn12 [10c, 2-[3-(4-pyrimidin-2-ylpiperazin-1-yl)propyl]-[1,2,4]triazolo[4,3-a]pyridin-3-one hydrochloride]
278 ± 19 nM | 342 ± 48 nM | 1940 ± 281 nM | 137 ± 11 nM | 16 ± 2 nM | O=c1n(CCCCCCN2CCN(c3cccc(Cl)c3)CC2)nc2ccccn12 [10e, 2-[6-[4-(3-chlorophenyl)piperazin-1-yl]hexyl]-[1,2,4]triazolo[4,3-a]pyridin-3-one hydrochloride]
435 ± 61 nM | 234 ± 46 nM | 2060 ± 173 nM | 362 ± 17 nM | 27 ± 3 nM | O=c1n(CCCCCCN2CCN(c3ccc(Cl)cc3)CC2)nc2ccccn12 [10g, 2-[6-[4-(4-chlorophenyl)piperazin-1-yl]hexyl]-[1,2,4]triazolo[4,3-a]pyridin-3-one hydrochloride]
196 ± 29 nM | 77 ± 14 nM | 576 ± 82 nM | 310 ± 42 nM | 19 ± 3 nM | O=c1n(CCCCCCN2CCN(c3ccc(Cl)c(Cl)c3)CC2)nc2ccccn12 [10h, 2-[6-[4-(3,4-dichlorophenyl)piperazin-1-yl]hexyl]-[1,2,4]triazolo[4,3-a]pyridin-3-one hydrochloride]
219 ± 36 nM | 841 ± 105 nM | 11500 nM | 57 ± 6 nM | 4 ± 1 nM | COc1ccccc1N1CCN(CCCCCCn2nc3ccccn3c2=O)CC1 [10j, 2-[6-[4-(2-methoxyphenyl)piperazin-1-yl]hexyl]-[1,2,4]triazolo[4,3-a]pyridin-3-one hydrochloride]
251 ± 52 nM | 1540 ± 225 nM | 4820 ± 581 nM | 1640 ± 219 nM | 9 ± 2 nM | CCOc1ccccc1N1CCN(CCCCCCn2nc3ccccn3c2=O)CC1 [10m, 2-[6-[4-(2-ethoxyphenyl)piperazin-1-yl]hexyl]-[1,2,4]triazolo[4,3-a]pyridin-3-one hydrochloride]
404 ± 67 nM | 391 ± 27 nM | 3330 ± 197 nM | 1530 ± 116 nM | 28 ± 4 nM | O=c1n(CCCCCCN2CCN(c3ccccc3)CC2)nc2ccccn12 [10p, 2-[6-(4-phenylpiperazin-1-yl)hexyl]-[1,2,4]triazolo[4,3-a]pyridin-3-one hydrochloride]
19 ± 3 nM | 328 ± 49 nM | 1190 ± 165 nM | 191 ± 14 nM | 20 ± 3 nM | O=c1n(CCCCCCN2CCN(c3ccccc3-c3ccccc3)CC2)nc2ccccn12 [10r, 2-[6-[4-(2-phenylphenyl)piperazin-1-yl]hexyl]-[1,2,4]triazolo[4,3-a]pyridin-3-one hydrochloride]

From article PMC6515286 (Molecules, 2019)
